{"source": "paper PMC5218480", "about": "(PLoS ONE, 2017)", "tested_on": "MV-4-11 cells", "test": "Gene expression microarray analysis (Affymetrix PrimeView) and GSEA", "assay_type": "cell-based, human", "set-up": "RFU PODN (11730768_x_at) / Fold change /veh PODN (11730768_x_at) / RFU LINC00158 (11744669_a_at) / Fold change /veh LINC00158 (11744669_a_at) / RFU DUSP10 (11751237_a_at) / Fold change /veh DUSP10 (11751237_a_at) / RFU ID3 (11757404_x_at) / Fold change /veh ID3 (11757404_x_at) / RFU PLEKHG5 (11737974_s_at) / Fold change /veh PLEKHG5 (11737974_s_at) / RFU LRRC4B (11730491_at) / Fold change /veh LRRC4B (11730491_at) / RFU GIMAP4 (11747438_a_at) / Fold change /veh GIMAP4 (11747438_a_at) / RFU KRT8 (11758183_x_at) / Fold change /veh KRT8 (11758183_x_at) / RFU CNN1 (11734310_a_at) / Fold change /veh CNN1 (11734310_a_at) / RFU VPS37D (11726825_at) / Fold change /veh VPS37D (11726825_at) / RFU C10orf10 (11716522_x_at) / Fold change /veh C10orf10 (11716522_x_at) / RFU KIR2DL2 /// KIR2DL4 /// KIR2DL5A /// KIR2DL5B /// KIR2DS1 /// KIR2DS2 /// KIR2DS3 /// KIR2DS4 /// KIR3DL3 /// KIR3DL3 /// KIR3DS1 (11738374_at) / Fold change /veh KIR2DL2 /// KIR2DL4 /// KIR2DL5A /// KIR2DL5B /// KIR2DS1 /// KIR2DS2 /// KIR2DS3 /// KIR2DS4 /// KIR3DL3 /// KIR3DL3 /// KIR3DS1 (11738374_at) / RFU C1QL1 (11718748_at) / Fold change /veh C1QL1 (11718748_at) / RFU TMPRSS4 (11747572_a_at) / Fold change /veh TMPRSS4 (11747572_a_at) / RFU HAMP (11756126_x_at) / Fold change /veh HAMP (11756126_x_at) / RFU RNFT2 (11725882_a_at) / Fold change /veh RNFT2 (11725882_a_at) / RFU NR4A2 (11747474_a_at) / Fold change /veh NR4A2 (11747474_a_at) / RFU ABCC12 (11746883_a_at) / Fold change /veh ABCC12 (11746883_a_at) / RFU TMEM136 (11760407_x_at) / Fold change /veh TMEM136 (11760407_x_at) / RFU CLDN22 /// WWC2 (11732394_at) / Fold change /veh CLDN22 /// WWC2 (11732394_at) / RFU HLA-DPB1 (11760878_x_at) / Fold change /veh HLA-DPB1 (11760878_x_at) / RFU SPINT1 (11716480_a_at) / Fold change /veh SPINT1 (11716480_a_at) / RFU GAP43 (11754022_s_at) / Fold change /veh GAP43 (11754022_s_at) / RFU A4GNT (11735810_at) / Fold change /veh A4GNT (11735810_at) / RFU PRB3 (11715151_x_at) / Fold change /veh PRB3 (11715151_x_at) / RFU TUBB4B (11761932_at) / Fold change /veh TUBB4B (11761932_at) / RFU CAPN14 (11732068_a_at) / Fold change /veh CAPN14 (11732068_a_at) / RFU TMCC2 (11721928_a_at) / Fold change /veh TMCC2 (11721928_a_at) / RFU IRGQ (11745062_a_at) / Fold change /veh IRGQ (11745062_a_at) / RFU FAM174B (11720279_a_at) / Fold change /veh FAM174B (11720279_a_at) / RFU TMPRSS4 (11748680_a_at) / Fold change /veh TMPRSS4 (11748680_a_at) / RFU FAM212B (11763350_a_at) / Fold change /veh FAM212B (11763350_a_at) / RFU PLEKHG5 (11743358_a_at) / Fold change /veh PLEKHG5 (11743358_a_at) / RFU ZSCAN30 (11745921_a_at) / Fold change /veh ZSCAN30 (11745921_a_at) / RFU CMKLR1 (11741424_a_at) / Fold change /veh CMKLR1 (11741424_a_at) / RFU LOC101060620 /// MAPK8IP1 (11723275_at) / Fold change /veh LOC101060620 /// MAPK8IP1 (11723275_at) / RFU SPTSSB (11747773_x_at) / Fold change /veh SPTSSB (11747773_x_at) / RFU PRSS12 (11739890_at) / Fold change /veh PRSS12 (11739890_at) / RFU BIN1 (11741810_x_at) / Fold change /veh BIN1 (11741810_x_at) / RFU WNT11 (11732464_a_at) / Fold change /veh WNT11 (11732464_a_at) / RFU C10orf10 (11716521_a_at) / Fold change /veh C10orf10 (11716521_a_at) / RFU C5orf56 (11738089_at) / Fold change /veh C5orf56 (11738089_at) / RFU CYB561 (11721691_x_at) / Fold change /veh CYB561 (11721691_x_at) / RFU ANKRD19P (11752326_a_at) / Fold change /veh ANKRD19P (11752326_a_at) / RFU OR2T12 /// OR2T33 /// OR2T8 (11738714_s_at) / Fold change /veh OR2T12 /// OR2T33 /// OR2T8 (11738714_s_at) / RFU VCAN (11748164_a_at) / Fold change /veh VCAN (11748164_a_at) / RFU JSRP1 (11732532_at) / Fold change /veh JSRP1 (11732532_at) / RFU KRTAP10-11 (11738290_x_at) / Fold change /veh KRTAP10-11 (11738290_x_at) / RFU MYO3A (11730013_a_at) / Fold change /veh MYO3A (11730013_a_at) / RFU EBF3 (11725865_a_at) / Fold change /veh EBF3 (11725865_a_at) / RFU CAMK2N1 (11719241_x_at) / Fold change /veh CAMK2N1 (11719241_x_at) / RFU C5orf56 (11738088_a_at) / Fold change /veh C5orf56 (11738088_a_at) / RFU OLFML3 (11715873_a_at) / Fold change /veh OLFML3 (11715873_a_at) / RFU LOC100653217 /// NTM (11731650_a_at) / Fold change /veh LOC100653217 /// NTM (11731650_a_at) / RFU MAPK11 (11762145_a_at) / Fold change /veh MAPK11 (11762145_a_at) / RFU FIZ1 (11724087_x_at) / Fold change /veh FIZ1 (11724087_x_at) / RFU OASL (11726364_x_at) / Fold change /veh OASL (11726364_x_at) / RFU SOX15 (11748057_x_at) / Fold change /veh SOX15 (11748057_x_at) / RFU CD79A (11719716_a_at) / Fold change /veh CD79A (11719716_a_at) / RFU HIST1H1D (11736915_at) / Fold change /veh HIST1H1D (11736915_at) / RFU CASKIN2 (11723855_a_at) / Fold change /veh CASKIN2 (11723855_a_at) / RFU LOC730098 (11760151_x_at) / Fold change /veh LOC730098 (11760151_x_at) / RFU OR4N2 (11742367_at) / Fold change /veh OR4N2 (11742367_at) / RFU PRRT2 (11749266_a_at) / Fold change /veh PRRT2 (11749266_a_at) / RFU SNX32 (11753110_a_at) / Fold change /veh SNX32 (11753110_a_at) / RFU CDHR5 (11726645_a_at) / Fold change /veh CDHR5 (11726645_a_at) / RFU RCAN1 (11760418_a_at) / Fold change /veh RCAN1 (11760418_a_at) / RFU FAM167A (11723789_a_at) / Fold change /veh FAM167A (11723789_a_at) / RFU FAM26E (11764081_at) / Fold change /veh FAM26E (11764081_at) / RFU ISYNA1 (11749810_s_at) / Fold change /veh ISYNA1 (11749810_s_at) / RFU ACY1 (11761880_at) / Fold change /veh ACY1 (11761880_at) / RFU 11764098_at / Fold change /veh 11764098_at / RFU SAMD14 (11745864_x_at) / Fold change /veh SAMD14 (11745864_x_at) / RFU NPB (11741838_a_at) / Fold change /veh NPB (11741838_a_at) / RFU TMPRSS6 (11731388_a_at) / Fold change /veh TMPRSS6 (11731388_a_at) / RFU KRTAP10-2 (11738614_at) / Fold change /veh KRTAP10-2 (11738614_at) / RFU ARHGAP8 /// PRR5-ARHGAP8 (11727945_x_at) / Fold change /veh ARHGAP8 /// PRR5-ARHGAP8 (11727945_x_at) / RFU KRTAP5-7 /// NADSYN1 (11734609_at) / Fold change /veh KRTAP5-7 /// NADSYN1 (11734609_at) / RFU RASL12 (11751679_a_at) / Fold change /veh RASL12 (11751679_a_at) / RFU CDKN2B (11736163_a_at) / Fold change /veh CDKN2B (11736163_a_at) / RFU PRF1 (11729649_at) / Fold change /veh PRF1 (11729649_at) / RFU, ZNF638 /// ZNF638-IT1 / Fold change vs veh, ZNF638 /// ZNF638-IT1 / RFU, PANK3 / Fold change vs veh, PANK3 / RFU, SH3YL1 / Fold change vs veh, SH3YL1 / RFU, ZEB2 / Fold change vs veh, ZEB2 / RFU, NRIP1 / Fold change vs veh, NRIP1 / RFU, PTTG1IP / Fold change vs veh, PTTG1IP / RFU, CAPN2 / Fold change vs veh, CAPN2 / RFU, MED14 / Fold change vs veh, MED14 / RFU, SNORA58 / Fold change vs veh, SNORA58 / RFU, C1orf63 / Fold change vs veh, C1orf63 / RFU, LRRFIP1 / Fold change vs veh, LRRFIP1 / RFU, NDUFAF7 / Fold change vs veh, NDUFAF7 / RFU, SLC12A2 / Fold change vs veh, SLC12A2 / RFU, IBTK / Fold change vs veh, IBTK / RFU, ESF1 / Fold change vs veh, ESF1 / Fold change vs veh, TMEM50B / RFU, TAOK1 / Fold change vs veh, TAOK1 / RFU, ACBD3 / Fold change vs veh, ACBD3 / RFU, TMA16 / Fold change vs veh, TMA16 / RFU, RWDD3 / Fold change vs veh, RWDD3 / RFU, BCAT1 / Fold change vs veh, BCAT1 / RFU, EDEM3 / Fold change vs veh, EDEM3 / RFU, TMEM33 / Fold change vs veh, TMEM33 / RFU, WDR75 / Fold change vs veh, WDR75 / RFU, AHCTF1 / Fold change vs veh, AHCTF1 / RFU, TFRC / Fold change vs veh, TFRC / RFU, ZDHHC17 / Fold change vs veh, ZDHHC17 / RFU, NOM1 / Fold change vs veh, NOM1 / RFU, ARL8B / Fold change vs veh, ARL8B / RFU, ZBTB11 / Fold change vs veh, ZBTB11 / RFU, TAMM41 / Fold change vs veh, TAMM41 / RFU, KIAA1704 /// LOC100996395 / Fold change vs veh, KIAA1704 /// LOC100996395 / RFU, ING1 / Fold change vs veh, ING1 / RFU, TRMT61B / Fold change vs veh, TRMT61B / RFU, FUBP3 / Fold change vs veh, FUBP3 / RFU, TP53 / Fold change vs veh, TP53 / RFU, TNKS2 / Fold change vs veh, TNKS2 / RFU, ZFP14 / Fold change vs veh, ZFP14 / RFU, ACTR2 / Fold change vs veh, ACTR2 / RFU, PPP3R1 / Fold change vs veh, PPP3R1 / RFU, PIK3R1 / Fold change vs veh, PIK3R1 / RFU, HNRNPA1 / Fold change vs veh, HNRNPA1 / RFU, RNF170 / Fold change vs veh, RNF170 / RFU, ZNF28 / Fold change vs veh, ZNF28 / RFU, RNGTT / Fold change vs veh, RNGTT / RFU, OGT / Fold change vs veh, OGT / RFU, BRD1 / Fold change vs veh, BRD1 / RFU, MARS / Fold change vs veh, MARS / RFU, ZNF655 / Fold change vs veh, ZNF655 / RFU, FAHD1 / Fold change vs veh, FAHD1 / RFU, BDP1 / Fold change vs veh, BDP1 / RFU, LRRCC1 / Fold change vs veh, LRRCC1 / RFU, ARID1A / Fold change vs veh, ARID1A / RFU, ZNF146 / Fold change vs veh, ZNF146 / RFU, ZNF330 / Fold change vs veh, ZNF330 / RFU, GPN3 / Fold change vs veh, GPN3 / RFU, C9orf123 / Fold change vs veh, C9orf123 / RFU, N4BP2L2 / Fold change vs veh, N4BP2L2 / RFU, ARFIP1 / Fold change vs veh, ARFIP1 / RFU, FAM179B / Fold change vs veh, FAM179B / RFU, BCL10 / Fold change vs veh, BCL10 / RFU, UHRF1BP1L / Fold change vs veh, UHRF1BP1L / RFU, BET1 / Fold change vs veh, BET1 / RFU, CNOT2 / Fold change vs veh, CNOT2 / RFU, ZNF268 / Fold change vs veh, ZNF268 / Fold change vs veh, ZNF507 / RFU, DGCR2 / Fold change vs veh, DGCR2 / RFU, WDSUB1 / Fold change vs veh, WDSUB1 / Fold change vs veh, HSP90B1 /// MIR3652 / RFU, ADSS / Fold change vs veh, ADSS / RFU, GK / Fold change vs veh, GK / RFU, ZNF148 / Fold change vs veh, ZNF148 / RFU, TAF9 / Fold change vs veh, TAF9 / RFU, SLC1A5 / Fold change vs veh, SLC1A5 / RFU, SLMO2 / Fold change vs veh, SLMO2 / RFU, ABCC4 / Fold change vs veh, ABCC4 / RFU, LOC101060439 /// RAP1B / Fold change vs veh, LOC101060439 /// RAP1B / RFU, RFX7 / Fold change vs veh, RFX7 / RFU, GTPBP10 / Fold change vs veh, GTPBP10 / RFU, CNEP1R1 / Fold change vs veh, CNEP1R1 / RFU, BIVM-ERCC5 /// ERCC5 / Fold change vs veh, BIVM-ERCC5 /// ERCC5 / RFU, ILF3 / Fold change vs veh, ILF3 / RFU 11762660_at / Fold change /veh 11762660_at / RFU VCAN (11757783_s_at) / Fold change /veh VCAN (11757783_s_at) / RFU DDX43 (11728927_at) / Fold change /veh DDX43 (11728927_at) / RFU KRT8 (11758188_x_at) / Fold change /veh KRT8 (11758188_x_at) / RFU NKD1 (11759106_at) / Fold change /veh NKD1 (11759106_at) / RFU SRD5A1 (11742802_a_at) / Fold change /veh SRD5A1 (11742802_a_at) / RFU TPSAB1 /// TPSB2 (11721975_s_at) / Fold change /veh TPSAB1 /// TPSB2 (11721975_s_at) / RFU GSTM3 (11746129_a_at) / Fold change /veh GSTM3 (11746129_a_at) / RFU IL23R (11737362_x_at) / Fold change /veh IL23R (11737362_x_at) / RFU TMEM51 (11727254_a_at) / Fold change /veh TMEM51 (11727254_a_at) / RFU PIWIL2 (11732686_x_at) / Fold change /veh PIWIL2 (11732686_x_at) / RFU ORM1 (11744905_x_at) / Fold change /veh ORM1 (11744905_x_at) / RFU CCDC152 (11743942_at) / Fold change /veh CCDC152 (11743942_at) / RFU ECM1 (11717891_a_at) / Fold change /veh ECM1 (11717891_a_at) / RFU IL23R (11748794_a_at) / Fold change /veh IL23R (11748794_a_at) / RFU TNFAIP8L3 (11732012_x_at) / Fold change /veh TNFAIP8L3 (11732012_x_at) / RFU MBOAT4 (11741988_at) / Fold change /veh MBOAT4 (11741988_at) / RFU 11764193_at / Fold change /veh 11764193_at / RFU TMEM53 (11763286_at) / Fold change /veh TMEM53 (11763286_at) / RFU MAGEB2 (11727129_at) / Fold change /veh MAGEB2 (11727129_at) / RFU TMEM200A (11744735_a_at) / Fold change /veh TMEM200A (11744735_a_at) / RFU CCDC152 (11751479_a_at) / Fold change /veh CCDC152 (11751479_a_at) / RFU FAM211A (11726209_a_at) / Fold change /veh FAM211A (11726209_a_at) / RFU RGS16 (11746705_a_at) / Fold change /veh RGS16 (11746705_a_at) / RFU VCAN (11755009_s_at) / Fold change /veh VCAN (11755009_s_at) / RFU RHOB (11743442_s_at) / Fold change /veh RHOB (11743442_s_at) / RFU RGS16 (11720943_a_at) / Fold change /veh RGS16 (11720943_a_at) / RFU RGS16 (11720944_at) / Fold change /veh RGS16 (11720944_at) / RFU, VPS4B / Fold change vs veh, VPS4B / RFU, CREB1 / Fold change vs veh, CREB1 / RFU, DNAJC13 / Fold change vs veh, DNAJC13 / RFU, GNAQ / Fold change vs veh, GNAQ / RFU, CDK5R1 / Fold change vs veh, CDK5R1 / RFU, ZRANB3 / Fold change vs veh, ZRANB3 / RFU, CUL4A / Fold change vs veh, CUL4A / RFU, CCNY / Fold change vs veh, CCNY / RFU, UFL1 / Fold change vs veh, UFL1 / RFU, COG3 / Fold change vs veh, COG3 / RFU, DIAPH2 / Fold change vs veh, DIAPH2 / RFU, SKA2 / Fold change vs veh, SKA2 / RFU, AFF3 / Fold change vs veh, AFF3 / RFU, LMF1 / Fold change vs veh, LMF1 / RFU, IPO11 / Fold change vs veh, IPO11 / RFU, DFFB / Fold change vs veh, DFFB / RFU, FOXP1 / Fold change vs veh, FOXP1 / RFU, CARD8 / Fold change vs veh, CARD8 / RFU, STRN3 / Fold change vs veh, STRN3 / RFU, ADK / Fold change vs veh, ADK / RFU, RASSF2 / Fold change vs veh, RASSF2 / RFU, WIPF1 / Fold change vs veh, WIPF1 / RFU, LARP1B / Fold change vs veh, LARP1B / RFU, RASA1 / Fold change vs veh, RASA1 / RFU, RB1 / Fold change vs veh, RB1 / RFU, PPFIA1 / Fold change vs veh, PPFIA1 / RFU, MAT2A / Fold change vs veh, MAT2A / RFU, CCT5 / Fold change vs veh, CCT5 / RFU, WDR92 / Fold change vs veh, WDR92 / RFU, CUX1 / Fold change vs veh, CUX1 / RFU, TTC7A / Fold change vs veh, TTC7A / RFU, TMEM135 / Fold change vs veh, TMEM135 / RFU, DEPTOR / Fold change vs veh, DEPTOR / RFU, CPM / Fold change vs veh, CPM / RFU, DNAJB6 / Fold change vs veh, DNAJB6 / RFU, CACNA2D3 / Fold change vs veh, CACNA2D3 / RFU, DTX4 / Fold change vs veh, DTX4 / RFU, TFCP2 / Fold change vs veh, TFCP2 / RFU, GMCL1 /// GMCL1P1 / Fold change vs veh, GMCL1 /// GMCL1P1 / RFU, AEBP2 / Fold change vs veh, AEBP2 / RFU, SNHG1 /// SNORD22 /// SNORD25 /// SNORD26 /// SNORD27 /// SNORD28 /// SNORD29 /// SNORD31 / Fold change vs veh, SNHG1 /// SNORD22 /// SNORD25 /// SNORD26 /// SNORD27 /// SNORD28 /// SNORD29 /// SNORD31 / Fold change (Aza/veh), C12orf56 (ProbeSet 11735607_a_at) / Fold change (ACY-1035/veh), C12orf56 (ProbeSet 11735607_a_at) / Fold change (Aza/veh), FGFR1OP (ProbeSet 11751329_s_at) / Fold change (ACY-1035/veh), FGFR1OP (ProbeSet 11751329_s_at) / Fold change (Aza/veh), VPS36 (ProbeSet 11739960_a_at) / Fold change (ACY-1035/veh), VPS36 (ProbeSet 11739960_a_at) / RFU SYPL1 (11715823_x_at) / Fold change /veh SYPL1 (11715823_x_at) / RFU IGFBP7 (11715501_s_at) / Fold change /veh IGFBP7 (11715501_s_at) / RFU REEP3 (11722064_at) / Fold change /veh REEP3 (11722064_at) / RFU IGLL1 (11728026_x_at) / Fold change /veh IGLL1 (11728026_x_at): dose or concentration left out as unconfirmed", "conditions": "MV-4-11 cells, 48 hours", "data": [{"smiles": "Nc1ccc(-c2cccs2)cc1NC(=O)c1ccc2c(c1)cc(C1CC1)n2CCN1CCOCC1", "note": "[ACY-1035]", "values": [{"measurement": "RFU REEP3 (11722064_at)", "result": 19.86, "unit": "RFU"}]}]}
